# According to patent US6982279B2, “Arylated furan- and thiophenecarboxamides, processes for their preparation, their use as medicaments, and pharmaceutical preparations comprising them” (Aventis Pharm Deutschland GmbH, priority 2000, dated 2006):
# Molecular target: T1, Kv1.5 channels from humans (Homo sapiens, UniProt P22460)
# T1 construct: expressed in transfected cells; host or cells: Xenopus laevis oocytes injected with in vitro synthesized RNA
# Assay: Kv1.5 currents in Xenopus oocytes, 2-microelectrode voltage clamp
# Format: cell-based
# Conditions: human Kv1.5 expressed in Xenopus laevis oocytes; voltage jumps to 0 mV and 40 mV lasting 500 ms; room temperature; Hill equation
# Experimental: Kv1.5 channels from humans were expressed in Xenopus oocytes. To this end, oocytes from Xenopus laevis were first isolated and defolliculated. RNA coding for Kv1.5 synthesized in vitro was then injected into these oocytes. After a Kv1.5 protein expression for 1-7 days, Kv1.5 currents were measured on the oocytes using the 2-microelectrode voltage clamp technique. The Kv1.5 channels were in this case as a rule activated using voltage jumps to 0 mV and 40 mV lasting 500 ms. The bath was rinsed using a solution of the following composition: NaCl 96 mM, KCl 2 mM, CaCl2 1.8 mM, MgCl2 1 mM, HEPES 5 mM (titrated with NaOH to pH 7.4). These experiments were carried out at room temperature. The following were employed for data acquisition and analysis: Gene clamp amplifier (Axon Instruments, Foster City, USA) and MacLab D/A converter and software (ADInstruments, Castle Hill, Australia). The substances according to the invention were tested by adding them to the bath solution in different concentrations. The effects of the substances were calculated as the percentage inhibition of the Kv1.5 control current which was obtained when no substance was added to the solution. The data were then extrapolated using the Hill equation in order to determine the inhibition concentrations IC50 for the respective substances.
# T1 sequence (P22460 whole entry): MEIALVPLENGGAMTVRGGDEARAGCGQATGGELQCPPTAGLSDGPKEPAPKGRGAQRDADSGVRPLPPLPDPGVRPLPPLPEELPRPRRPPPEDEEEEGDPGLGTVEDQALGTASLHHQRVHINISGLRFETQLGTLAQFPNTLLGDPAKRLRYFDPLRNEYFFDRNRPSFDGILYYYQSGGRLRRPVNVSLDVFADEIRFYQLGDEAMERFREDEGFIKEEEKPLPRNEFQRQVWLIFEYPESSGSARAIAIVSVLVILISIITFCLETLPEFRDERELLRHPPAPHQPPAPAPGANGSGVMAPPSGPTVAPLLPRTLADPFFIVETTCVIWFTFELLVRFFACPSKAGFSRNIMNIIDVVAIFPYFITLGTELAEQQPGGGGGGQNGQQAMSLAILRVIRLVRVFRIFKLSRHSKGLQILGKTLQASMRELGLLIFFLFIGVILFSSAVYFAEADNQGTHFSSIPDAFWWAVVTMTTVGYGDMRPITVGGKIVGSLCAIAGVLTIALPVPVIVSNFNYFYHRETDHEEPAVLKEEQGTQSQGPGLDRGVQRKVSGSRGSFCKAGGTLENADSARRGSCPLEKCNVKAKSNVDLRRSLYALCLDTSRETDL
row,SMILES,IC50 [µM]
1,COc1ccc(CC(=O)NCc2ccccc2-c2ccsc2C(=O)NCc2ccc(F)cc2F)cc1 [Example 23],1.2
2,CC(C)(C)OC(=O)NCc1ccccc1-c1ccoc1C(=O)NCc1ccc(F)cc1F [Example 3],9
3,CC(C)(C)OC(=O)NCc1ccccc1-c1sccc1C(=O)NCc1ccc(F)cc1F [Example 5],3.1
4,CC(C)CCNC(=O)c1ccsc1-c1ccccc1CNC(=O)OCc1ccccc1 [Example 15],1.2
5,"CC(C)CCNC(=O)c1sccc1-c1ccccc1CNC(=O)OC(C)(C)C [Example 1, tert-Butyl {2-[2-(3-methylbutylcarbamoyl)thiophen-3-yl]benzyl}carbamate]",4
6,COc1ccc(CC(=O)NCc2ccccc2-c2sccc2C(=O)NCc2ccc(F)cc2F)cc1 [Example 25],1.5
7,"CC(C)CCNC(=O)c1sccc1-c1ccccc1CNC(=O)OCc1ccccc1 [Example 11, Benzyl {2-[2-(3-methylbutylcarbamoyl)thiophen-3-yl]-benzyl}carbamate]",3
8,O=C(NCc1ccccc1-c1ccoc1C(=O)NCc1ccc(F)cc1F)OCc1ccccc1 [Example 14],< 100
9,CC(C)CCNC(=O)c1ccsc1-c1ccccc1CNC(=O)OC(C)(C)C [Example 6],< 100
10,COc1ccc(CC(=O)NCc2ccccc2-c2ccoc2C(=O)NCCC(C)C)cc1 [Example 20],< 100
11,COc1ccc(CC(=O)NCc2ccccc2-c2sccc2C(=O)NCCC(C)C)cc1 [Example 24],2.2
12,O=C(NCc1ccccc1-c1sccc1C(=O)NCc1ccc(F)cc1F)OCc1ccccc1 [Example 16],1.9
13,COc1ccc(CC(=O)NCc2ccccc2-c2ccsc2C(=O)NCCC(C)C)cc1 [Example 22],1.7
14,COc1ccc(CC(=O)NCc2ccccc2-c2ccoc2C(=O)NCc2ccc(F)cc2F)cc1 [Example 21],3.9
15,CC(C)(C)OC(=O)NCc1ccccc1-c1occc1C(=O)NCc1ccc(F)cc1F [Example 7],10
16,CC(C)CCNC(=O)c1occc1-c1ccccc1CNC(=O)OCc1ccccc1 [Example 13],5.6
17,O=C(NCc1ccccc1-c1occc1C(=O)NCc1ccc(F)cc1F)OCc1ccccc1 [Example 18],5.2

# Results, then the compound that gave them:
row,IC50 [µM],SMILES
1,2.2,CC(C)CCNC(=O)c1ccoc1-c1ccccc1CNC(=O)OCc1ccccc1 [Example 17]
2,3.9,COc1ccc(CC(=O)NCc2ccccc2-c2occc2C(=O)NCCC(C)C)cc1 [Example 26]
3,5.2,CC(C)CCNC(=O)c1ccoc1-c1ccccc1CNC(=O)OC(C)(C)C [Example 8]
4,< 100,O=C(NCc1ccccc1-c1ccc(C(=O)NCc2ccc(F)cc2F)o1)OCc1ccccc1 [Example 19]
5,2,O=C(NCc1ccccc1-c1ccsc1C(=O)NCc1ccc(F)cc1F)OCc1ccccc1 [Example 12]
6,10,CC(C)CCNC(=O)c1occc1-c1ccccc1CNC(=O)OC(C)(C)C [Example 4]
7,5,CC(C)(C)OC(=O)NCc1ccccc1-c1ccsc1C(=O)NCc1ccc(F)cc1F [Example 2]
8,4.2,COc1ccc(CC(=O)NCc2ccccc2-c2ccc(C(=O)NCc3ccc(F)cc3F)o2)cc1 [Example 29]
9,6.6,COc1ccc(CC(=O)NCc2ccccc2-c2occc2C(=O)NCc2ccc(F)cc2F)cc1 [Example 27]
10,< 100,CC(C)(C)OC(=O)NCc1ccccc1-c1ccc(C(=O)NCc2ccc(F)cc2F)o1 [Example 9]
11,< 100,COc1ccc(CC(=O)NCc2ccccc2-c2ccc(C(=O)NCCC(C)C)o2)cc1 [Example 28]
12,< 100,CC(C)CCNC(=O)c1ccc(-c2ccccc2CNC(=O)OC(C)(C)C)o1 [Example 10]
